Patent US20210230203A1, “Amphiphilic Kanamycin Compositions and Methods” (priority 2020, published 2021)
In brackets after ≈: the same amount, converted by molar mass.

Key:
C. auris = assay: MIC against various species, CLSI M27 & M38 (Table 4); conditions: 24-72 hours
Candida albicans MYA2876 = assay: MIC against fungal strains (Table 1); format: cell-based; conditions: Candida albicans MYA2876
Fusarium = assay: MIC against various species, CLSI M27 & M38 (Table 4); format: cell-based; conditions: 24-72 hours
A. furnigatus = assay: as above; conditions: 24-72 hours
Cryptococcus neoformans = assay: MIC against yeast, CLSI M27 & M38 (Table 2); conditions: 24-72 hours
P. variatii = assay: MIC against filamentous and dimorphic fungi, CLSI M27 & M38 (Table 3); format: cell-based, Paecilomyces variotii; conditions: P. variatii MYA-3630, RPMI 0.165M MOPS, 24-72 hours
[1] = system: S. aureus (ATCC 43300) MRSA; format: cell-based
C. krusei [2] = assay: MIC against various species, CLSI M27 & M38 (Table 4); conditions: C. krusei AC ATCC 6258; Table 4; RPMI 0.165M MOPS; 24-72 hours
S. aureus (ATCC 25923) = assay: MIC against bacterial strains; format: cell-based
Candida glabrata = assay: MIC against yeast, CLSI M27 & M38 (Table 2); conditions: 24-72 hours
Histoplasma capsulatum = assay: microbe, parasite or virus in culture; format: cell-based; conditions: Table 3, RPMI 0.165M MOPS, 24-72 hours
L. prolificans = assay: MIC against various species, CLSI M27 & M38 (Table 4); conditions: L. prolificans LP1; Table 4; RPMI 0.165M MOPS; 24-72 hours
C. parapsilosis = assay: as above; conditions: C. parapsilosis QC ATCC 22019; Table 4; RPMI 0.165M MOPS; 24-72 hours
Candida albicans 64124 = assay: MIC against fungal strains (Table 1); format: cell-based
Rhizopus arrhizus = assay: MIC against filamentous and dimorphic fungi, CLSI M27 & M38 (Table 3); format: cell-based; conditions: 24-72 hours
Candida auris = assay: MIC against yeast, CLSI M27 & M38 (Table 2); conditions: 24-72 hours
C. krusei [3] = assay: MIC against yeast, CLSI M27 & M38 (Table 2); conditions: C. krusei ATCC 6258; Table 2; RPMI 0.165M MOPS; 24-72 hours
[4] = system: Fusarium graminearum B4-5A; assay: microbe, parasite or virus in culture; format: cell-based; conditions: Fusarium graminearum B4-5A
C. albicans = assay: MIC against various species, CLSI M27 & M38 (Table 4); conditions: 24-72 hours
E. coli (25922) = assay: MIC against bacterial strains; format: cell-based
[5] = C. auris DI17-46, RPMI 0.165M MOPS
[6] = C. auris DI17-47, RPMI 0.165M MOPS
[7] = C. auris DI17-48, RPMI 0.165M MOPS
[8] = A. furnigatus AF1, RPMI 0.165M MOPS
[9] = A. furnigatus AF2, RPMI 0.165M MOPS
[10] = A. furnigatus AF3, RPMI 0.165M MOPS
[11] = Cryptococcus neoformans CN1, RPMI 0.165M MOPS
[12] = Cryptococcus neoformans H99, RPMI 0.165M MOPS
[13] = Cryptococcus neoformans USC1597, RPMI 0.165M MOPS
[14] = Candida glabrata CG1, RPMI 0.165M MOPS
[15] = Candida glabrata CG2, RPMI 0.165M MOPS
[16] = Candida glabrata CG3, RPMI 0.165M MOPS
[17] = Rhizopus arrhizus 99-880, RPMI 0.165M MOPS
[18] = Rhizopus arrhizus 99-892, RPMI 0.165M MOPS
[19] = Rhizopus arrhizus RA1, RPMI 0.165M MOPS
[20] = Candida auris CAU1, RPMI 0.165M MOPS
[21] = Candida auris CAU2, RPMI 0.165M MOPS
[22] = Candida auris CAU3, RPMI 0.165M MOPS
[23] = Candida auris CAU4, RPMI 0.165M MOPS
[24] = Candida auris CAU5, RPMI 0.165M MOPS
[25] = Candida auris CAU6, RPMI 0.165M MOPS
[26] = Candida auris CAU7, RPMI 0.165M MOPS
[27] = Candida auris DI17-46, RPMI 0.165M MOPS
[28] = Candida auris DI17-47, RPMI 0.165M MOPS
[29] = Candida auris DI17-48, RPMI 0.165M MOPS
[30] = C. albicans CA1, RPMI 0.165M MOPS
[31] = C. albicans CA2, RPMI 0.165M MOPS
[32] = C. albicans CA3, RPMI 0.165M MOPS

CCCCCCCCCCCCCCCC(=O)NC[C@H]1O[C@H](O[C@H]2[C@H](O)[C@@H](O[C@H]3O[C@H](CO)[C@@H](O)[C@H](N)[C@H]3O)[C@H](N)C[C@@H]2N)[C@H](O)[C@@H](O)[C@@H]1O [KI06]
Minimum inhibitory concentration 50% (C. auris; [5]): 4 µg/mL (≈ 5.53 µM)
Minimum inhibitory concentration 100% (C. auris; [5]): 8 µg/mL (≈ 11.1 µM)
Minimum inhibitory concentration 50% (C. auris; [6]): 2 µg/mL (≈ 2.77 µM)
Minimum inhibitory concentration 100% (C. auris; [6]): 4 µg/mL (≈ 5.53 µM)
Minimum inhibitory concentration 50% (C. auris; [7]): 1 µg/mL (≈ 1.38 µM)
Minimum inhibitory concentration 100% (C. auris; [7]): 4 µg/mL (≈ 5.53 µM)
Minimum inhibitory concentration (Candida albicans MYA2876): 8 µg/mL (≈ 11.1 µM)
Minimum inhibitory concentration 50% (Fusarium; Fusarium FO1, RPMI 0.165M MOPS): 8 µg/mL (≈ 11.1 µM)
Minimum inhibitory concentration 100% (Fusarium; Fusarium FO1, RPMI 0.165M MOPS): 8 µg/mL (≈ 11.1 µM)
Minimum inhibitory concentration 50% (Fusarium; Fusarium FO2, RPMI 0.165M MOPS): 4 µg/mL (≈ 5.53 µM)
Minimum inhibitory concentration 100% (Fusarium; Fusarium FO2, RPMI 0.165M MOPS): 8 µg/mL (≈ 11.1 µM)
Minimum inhibitory concentration 50% (Fusarium; Fusarium FS1, RPMI 0.165M MOPS): 4 µg/mL (≈ 5.53 µM)
Minimum inhibitory concentration 100% (Fusarium; Fusarium FS1, RPMI 0.165M MOPS): 8 µg/mL (≈ 11.1 µM)
Minimum inhibitory concentration 50% (A. furnigatus; [8]): 8 µg/mL (≈ 11.1 µM)
Minimum inhibitory concentration 100% (A. furnigatus; [8]): 8 µg/mL (≈ 11.1 µM)
Minimum inhibitory concentration 50% (A. furnigatus; [9]): 32 µg/mL (≈ 44.3 µM)
Minimum inhibitory concentration 100% (A. furnigatus; [9]): 32 µg/mL (≈ 44.3 µM)
Minimum inhibitory concentration 50% (A. furnigatus; [10]): 8 µg/mL (≈ 11.1 µM)
Minimum inhibitory concentration 100% (A. furnigatus; [10]): 16 µg/mL (≈ 22.1 µM)
Minimum inhibitory concentration 50% (Cryptococcus neoformans; [11]): 4 µg/mL (≈ 5.53 µM)
Minimum inhibitory concentration 100% (Cryptococcus neoformans; [11]): 4 µg/mL (≈ 5.53 µM)
Minimum inhibitory concentration 50% (Cryptococcus neoformans; [12]): 4 µg/mL (≈ 5.53 µM)
Minimum inhibitory concentration 100% (Cryptococcus neoformans; [12]): 4 µg/mL (≈ 5.53 µM)
Minimum inhibitory concentration 50% (Cryptococcus neoformans; [13]): 4 µg/mL (≈ 5.53 µM)
Minimum inhibitory concentration 100% (Cryptococcus neoformans; [13]): 4 µg/mL (≈ 5.53 µM)
Minimum inhibitory concentration 50% (P. variatii): 8 µg/mL (≈ 11.1 µM)
Minimum inhibitory concentration 100% (P. variatii): 16 µg/mL (≈ 22.1 µM)
Minimum inhibitory concentration [1]: 16 µg/mL (≈ 22.1 µM)
Minimum inhibitory concentration 50% (C. krusei [2]): 4 µg/mL (≈ 5.53 µM)
Minimum inhibitory concentration 100% (C. krusei [2]): 8 µg/mL (≈ 11.1 µM)
Minimum inhibitory concentration (S. aureus (ATCC 25923)): 16 µg/mL (≈ 22.1 µM)
Minimum inhibitory concentration 50% (Candida glabrata; [14]): 4 µg/mL (≈ 5.53 µM)
Minimum inhibitory concentration 100% (Candida glabrata; [14]): 8 µg/mL (≈ 11.1 µM)
Minimum inhibitory concentration 50% (Candida glabrata; [15]): 4 µg/mL (≈ 5.53 µM)
Minimum inhibitory concentration 100% (Candida glabrata; [15]): 4 µg/mL (≈ 5.53 µM)
Minimum inhibitory concentration 50% (Candida glabrata; [16]): 4 µg/mL (≈ 5.53 µM)
Minimum inhibitory concentration 100% (Candida glabrata; [16]): 4 µg/mL (≈ 5.53 µM)
Minimum inhibitory concentration 50% (Histoplasma capsulatum; Histoplasma capsulatum HC1): 2 µg/mL (≈ 2.77 µM)
Minimum inhibitory concentration 100% (Histoplasma capsulatum; Histoplasma capsulatum HC1): 4 µg/mL (≈ 5.53 µM)
Minimum inhibitory concentration 50% (Histoplasma capsulatum; Histoplasma capsulatum HC2): 4 µg/mL (≈ 5.53 µM)
Minimum inhibitory concentration 100% (Histoplasma capsulatum; Histoplasma capsulatum HC2): 8 µg/mL (≈ 11.1 µM)
Minimum inhibitory concentration 50% (Histoplasma capsulatum; Histoplasma capsulatum HC3): 2 µg/mL (≈ 2.77 µM)
Minimum inhibitory concentration 100% (Histoplasma capsulatum; Histoplasma capsulatum HC3): 4 µg/mL (≈ 5.53 µM)
Minimum inhibitory concentration 50% (L. prolificans): 2 µg/mL (≈ 2.77 µM)
Minimum inhibitory concentration 100% (L. prolificans): 2 µg/mL (≈ 2.77 µM)
Minimum inhibitory concentration 50% (C. parapsilosis): 4 µg/mL (≈ 5.53 µM)
Minimum inhibitory concentration 100% (C. parapsilosis): 8 µg/mL (≈ 11.1 µM)
Minimum inhibitory concentration (Candida albicans 64124): 8 µg/mL (≈ 11.1 µM)
Minimum inhibitory concentration 50% (Rhizopus arrhizus; [17]): 2 µg/mL (≈ 2.77 µM)
Minimum inhibitory concentration 100% (Rhizopus arrhizus; [17]): 4 µg/mL (≈ 5.53 µM)
Minimum inhibitory concentration 50% (Rhizopus arrhizus; [18]): 2 µg/mL (≈ 2.77 µM)
Minimum inhibitory concentration 100% (Rhizopus arrhizus; [18]): 4 µg/mL (≈ 5.53 µM)
Minimum inhibitory concentration 50% (Rhizopus arrhizus; [19]): 2 µg/mL (≈ 2.77 µM)
Minimum inhibitory concentration 100% (Rhizopus arrhizus; [19]): 4 µg/mL (≈ 5.53 µM)
Minimum inhibitory concentration 50% (Candida auris; [20]): 4 µg/mL (≈ 5.53 µM)
Minimum inhibitory concentration 100% (Candida auris; [20]): 8 µg/mL (≈ 11.1 µM)
Minimum inhibitory concentration 50% (Candida auris; [21]): 4 µg/mL (≈ 5.53 µM)
Minimum inhibitory concentration 100% (Candida auris; [21]): 8 µg/mL (≈ 11.1 µM)
Minimum inhibitory concentration 50% (Candida auris; [22]): 4 µg/mL (≈ 5.53 µM)
Minimum inhibitory concentration 100% (Candida auris; [22]): 8 µg/mL (≈ 11.1 µM)
Minimum inhibitory concentration 50% (Candida auris; [23]): 8 µg/mL (≈ 11.1 µM)
Minimum inhibitory concentration 100% (Candida auris; [23]): 8 µg/mL (≈ 11.1 µM)
Minimum inhibitory concentration 50% (Candida auris; [24]): 8 µg/mL (≈ 11.1 µM)
Minimum inhibitory concentration 100% (Candida auris; [24]): 8 µg/mL (≈ 11.1 µM)
Minimum inhibitory concentration 50% (Candida auris; [25]): 4 µg/mL (≈ 5.53 µM)
Minimum inhibitory concentration 100% (Candida auris; [25]): 8 µg/mL (≈ 11.1 µM)
Minimum inhibitory concentration 50% (Candida auris; [26]): 4 µg/mL (≈ 5.53 µM)
Minimum inhibitory concentration 100% (Candida auris; [26]): 8 µg/mL (≈ 11.1 µM)
Minimum inhibitory concentration 50% (Candida auris; [27]): 8 µg/mL (≈ 11.1 µM)
Minimum inhibitory concentration 100% (Candida auris; [27]): 8 µg/mL (≈ 11.1 µM)
Minimum inhibitory concentration 50% (Candida auris; [28]): 8 µg/mL (≈ 11.1 µM)
Minimum inhibitory concentration 100% (Candida auris; [28]): 8 µg/mL (≈ 11.1 µM)
Minimum inhibitory concentration 50% (Candida auris; [29]): 4 µg/mL (≈ 5.53 µM)
Minimum inhibitory concentration 100% (Candida auris; [29]): 8 µg/mL (≈ 11.1 µM)
Minimum inhibitory concentration 50% (C. krusei [3]): 8 µg/mL (≈ 11.1 µM)
Minimum inhibitory concentration 100% (C. krusei [3]): 8 µg/mL (≈ 11.1 µM)
Minimum inhibitory concentration [4]: 4 µg/mL (≈ 5.53 µM)
Minimum inhibitory concentration 50% (C. albicans; [30]): 4 µg/mL (≈ 5.53 µM)
Minimum inhibitory concentration 100% (C. albicans; [30]): 4 µg/mL (≈ 5.53 µM)
Minimum inhibitory concentration 50% (C. albicans; [31]): 4 µg/mL (≈ 5.53 µM)
Minimum inhibitory concentration 100% (C. albicans; [31]): 8 µg/mL (≈ 11.1 µM)
Minimum inhibitory concentration 50% (C. albicans; [32]): 2 µg/mL (≈ 2.77 µM)
Minimum inhibitory concentration 100% (C. albicans; [32]): 4 µg/mL (≈ 5.53 µM)
Minimum inhibitory concentration (E. coli (25922)): 32 µg/mL (≈ 44.3 µM)
